# From PubChem BioAssay AID270 (DTP/NCI, 2004)
# Several values for one entry are separate records, joined by “and”; a condition that tells them apart may be missing. Equal entries are not always repeated. Results filed as inconclusive are left out.
# Tested on: BDF1 mice, s.c. Lewis lung carcinoma, T/C %
# Experiment: NCI In Vivo Anticancer Drug Screen. Data for tumor model Lewis Lung Carcinoma (subcutaneous) in B6D2F1 (BDF1) mice
# Outline: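 Transplanted tumors grown in mice; compound vs vehicle dosing; endpoint survival or tumor size; ratio T/C.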
# [1] = endpoint: mean tumor weight, dose: 25.0 mg/kg/injection, schedule: Q01DX011 (ip), vehicle: saline, higher = larger tumour
# [2] = endpoint: mean tumor weight, dose: 50.0 mg/kg/injection, schedule: Q01DX011 (ip), vehicle: saline, higher = larger tumour
# [3] = endpoint: median survival time, dose: 50.0 mg/kg/injection, schedule: Q01DX009 (ip), vehicle: Klucel (hydroxypropylcellulose) (HPC), higher = longer survival
# [4] = endpoint: median survival time, dose: 100.0 mg/kg/injection, schedule: Q01DX009 (ip), vehicle: Klucel (hydroxypropylcellulose) (HPC), higher = longer survival
# [5] = endpoint: median survival time, dose: 3.12 mg/kg/injection, schedule: Q01DX009 (ip), vehicle: Klucel (hydroxypropylcellulose) (HPC), higher = longer survival
# [6] = endpoint: median survival time, dose: 12.5 mg/kg/injection, schedule: Q01DX009 (ip), vehicle: Klucel (hydroxypropylcellulose) (HPC), higher = longer survival
# [7] = endpoint: median survival time, dose: 25.0 mg/kg/injection, schedule: Q01DX009 (ip), vehicle: Klucel (hydroxypropylcellulose) (HPC), higher = longer survival
structure (smiles),measurement,setting,value
CC/C(=C(\CC)c1ccc(OC)cc1)c1ccc(O)cc1,T/C,"endpoint: mean tumor weight, dose: 15.0 mg/kg/injection, schedule: Q01DX011 (sc), vehicle: steriod suspending solution, higher = larger tumour",54 % of control
same,T/C,"endpoint: mean tumor weight, dose: 30.0 mg/kg/injection, schedule: Q01DX011 (sc), vehicle: steriod suspending solution, higher = larger tumour",35 % of control
same,T/C,"endpoint: mean tumor weight, dose: 60.0 mg/kg/injection, schedule: Q01DX011 (sc), vehicle: steriod suspending solution, higher = larger tumour",23 % of control
same,T/C,"endpoint: mean tumor weight, dose: 100.0 mg/kg/injection, schedule: Q01DX011 (sc), vehicle: steriod suspending solution, higher = larger tumour",7 % of control
same,T/C,"endpoint: mean tumor weight, dose: 120.0 mg/kg/injection, schedule: Q01DX011 (sc), vehicle: steriod suspending solution, higher = larger tumour",31 % of control and 36 % of control
same,T/C,"endpoint: mean tumor weight, dose: 200.0 mg/kg/injection, schedule: Q01DX011 (sc), vehicle: steriod suspending solution, higher = larger tumour",22 % of control
same,T/C,"endpoint: mean tumor weight, dose: 240.0 mg/kg/injection, schedule: Q01DX011 (sc), vehicle: steriod suspending solution, higher = larger tumour",31 % of control
same,T/C,"endpoint: mean tumor weight, dose: 300.0 mg/kg/injection, schedule: Q01DX011 (sc), vehicle: steriod suspending solution, higher = larger tumour",22 % of control
Oc1c(Cl)cc(Cl)cc1/C=N/NC(=S)Nc1cc(C(F)(F)F)cc(C(F)(F)F)c1,T/C,"endpoint: median survival time, dose: 3.13 mg/kg/injection, schedule: Q01DX009 (ip), vehicle: olive oil, sesame oil, peanut oil, higher = longer survival",104 % of control
same,T/C,"endpoint: median survival time, dose: 12.5 mg/kg/injection, schedule: Q01DX009 (ip), vehicle: olive oil, sesame oil, peanut oil, higher = longer survival",90 % of control
O=C(O)CC(O)(CC(=O)O)C(=O)O.[Ga],T/C,"endpoint: mean tumor weight, dose: 12.5 mg/kg/injection, schedule: Q01DX011 (ip), vehicle: saline, higher = larger tumour",57 % of control
same,T/C,[1],50 % of control
same,T/C,[2],34 % of control
O=C(O)c1c2c(nc3ccccc13)Cc1ccccc1-2,T/C,[3],99 % of control
same,T/C,[4],109 % of control
same,T/C,"endpoint: median survival time, dose: 200.0 mg/kg/injection, schedule: Q01DX009 (ip), vehicle: Klucel (hydroxypropylcellulose) (HPC), higher = longer survival",109 % of control
CC(=O)OC1CC(OC2C(O)CC(OC3C(O)CC(OC4CCC5(C)C(CCC6C5CCC5(C)C(C7=CC(=O)OC7)CCC65O)C4)OC3C)OC2C)OC(C)C1OC1OC(CO)C(O)C(O)C1O (stereo not drawn),T/C,"endpoint: mean tumor weight, dose: 1.2 mg/kg/injection, schedule: Q01DX011 (ip), vehicle: carboxymethylcellulose (CMC), higher = larger tumour",55 % of control
same,T/C,"endpoint: mean tumor weight, dose: 2.5 mg/kg/injection, schedule: Q01DX011 (ip), vehicle: carboxymethylcellulose (CMC), higher = larger tumour",60 % of control
same,T/C,"endpoint: mean tumor weight, dose: 5.0 mg/kg/injection, schedule: Q01DX011 (ip), vehicle: carboxymethylcellulose (CMC), higher = larger tumour",32 % of control
c1cc2n(n1)CCN2,T/C,"endpoint: mean tumor weight (est.), dose: 50.0 mg/kg/injection, schedule: Q01DX009 (ip), vehicle: saline, higher = larger tumour",56 % of control
same,T/C,"endpoint: mean tumor weight (est.), dose: 100.0 mg/kg/injection, schedule: Q01DX009 (ip), vehicle: saline, higher = larger tumour",37 % of control
same,T/C,"endpoint: mean tumor weight (est.), dose: 100.0 mg/kg/injection, schedule: Q04DX003 (ip), vehicle: saline, higher = larger tumour",70 % of control
same,T/C,"endpoint: mean tumor weight (est.), dose: 200.0 mg/kg/injection, schedule: Q01DX009 (ip), vehicle: saline, higher = larger tumour",36 % of control
same,T/C,"endpoint: mean tumor weight (est.), dose: 200.0 mg/kg/injection, schedule: Q04DX003 (ip), vehicle: saline, higher = larger tumour",79 % of control
same,T/C,"endpoint: mean tumor weight (est.), dose: 400.0 mg/kg/injection, schedule: Q04DX003 (ip), vehicle: saline, higher = larger tumour",57 % of control
same,T/C,[1],97 % of control
same,T/C,[2],84 % of control
same,T/C,"endpoint: mean tumor weight, dose: 100.0 mg/kg/injection, schedule: Q01DX011 (ip), vehicle: saline, higher = larger tumour",82 % of control
same,T/C,"endpoint: mean tumor weight, dose: 200.0 mg/kg/injection, schedule: Q01DX011 (ip), vehicle: saline, higher = larger tumour",7 % of control
same,T/C,"endpoint: median survival time, dose: 50.0 mg/kg/injection, schedule: Q01DX009 (ip), vehicle: saline, higher = longer survival",122 % of control
same,T/C,"endpoint: median survival time, dose: 100.0 mg/kg/injection, schedule: Q01DX009 (ip), vehicle: saline, higher = longer survival",100 % of control
same,T/C,"endpoint: median survival time, dose: 100.0 mg/kg/injection, schedule: Q04DX003 (ip), vehicle: saline, higher = longer survival",102 % of control
same,T/C,"endpoint: median survival time, dose: 200.0 mg/kg/injection, schedule: Q01DX009 (ip), vehicle: saline, higher = longer survival",100 % of control
same,T/C,"endpoint: median survival time, dose: 400.0 mg/kg/injection, schedule: Q04DX003 (ip), vehicle: saline, higher = longer survival",88 % of control
CCN(CC)Cc1c(O)ccc2c3c(c(=O)oc12)CCCC3,T/C,"endpoint: median survival time, dose: 29.0 mg/kg/injection, schedule: Q01DX009 (ip), vehicle: Klucel (hydroxypropylcellulose) (HPC), higher = longer survival",99 % of control
same,T/C,"endpoint: median survival time, dose: 58.0 mg/kg/injection, schedule: Q01DX009 (ip), vehicle: Klucel (hydroxypropylcellulose) (HPC), higher = longer survival",94 % of control
Nc1ncn(C2OC(CO)C(O)C2O)c(=O)n1 (stereo not drawn),T/C,"endpoint: median survival time, dose: 0.75 mg/kg/injection, schedule: Q01DX009 (ip), vehicle: saline, higher = longer survival",105 % of control and 112 % of control and 121 % of control
same,T/C,"endpoint: median survival time, dose: 1.5 mg/kg/injection, schedule: Q01DX009 (ip), vehicle: saline, higher = longer survival",121 % of control and 124 % of control
same,T/C,"endpoint: median survival time, dose: 3.0 mg/kg/injection, schedule: Q01DX009 (ip), vehicle: saline, higher = longer survival",105 % of control and 110 % of control
same,T/C,"endpoint: median tumor weight (est.), dose: 0.75 mg/kg/injection, schedule: Q01DX009 (ip), vehicle: saline, higher = larger tumour",75 % of control
same,T/C,"endpoint: median tumor weight (est.), dose: 1.5 mg/kg/injection, schedule: Q01DX009 (ip), vehicle: saline, higher = larger tumour",73 % of control
same,T/C,"endpoint: median tumor weight (est.), dose: 3.0 mg/kg/injection, schedule: Q01DX009 (ip), vehicle: saline, higher = larger tumour",59 % of control
C[C@]12C=CC(=O)C=C1CC[C@@H]1[C@@H]2C(=O)C[C@@]2(C)[C@H]1CC[C@]2(O)C(=O)CO,T/C,"endpoint: mean tumor weight, dose: 6.25 mg/kg/injection, schedule: Q01DX011 (sc), vehicle: steriod suspending solution, higher = larger tumour",53 % of control
same,T/C,"endpoint: mean tumor weight, dose: 12.5 mg/kg/injection, schedule: Q01DX011 (sc), vehicle: steriod suspending solution, higher = larger tumour",36 % of control
same,T/C,"endpoint: mean tumor weight, dose: 25.0 mg/kg/injection, schedule: Q01DX011 (sc), vehicle: steriod suspending solution, higher = larger tumour",22 % of control
same,T/C,"endpoint: mean tumor weight, dose: 50.0 mg/kg/injection, schedule: Q01DX011 (sc), vehicle: steriod suspending solution, higher = larger tumour",25 % of control
same,T/C,[3],88 % of control
same,T/C,"endpoint: median survival time, dose: 50.0 mg/kg/injection, schedule: Q01DX009 (ip), vehicle: saline with Tween-80, higher = longer survival",102 % of control and 122 % of control
same,T/C,[4],107 % of control
same,T/C,"endpoint: median tumor weight (est.), dose: 50.0 mg/kg/injection, schedule: Q01DX009 (ip), vehicle: saline with Tween-80, higher = larger tumour",70 % of control
COc1ccc2c(c1)CC[C@@H]1[C@@H]2CC[C@@]2(C)[C@H]1CC[C@@]2(O)C(F)=C(F)F,T/C,"endpoint: median survival time, dose: 12.5 mg/kg/injection, schedule: Q01DX009 (sc), vehicle: steriod suspending solution, higher = longer survival",93 % of control
O=NN(CCCl)C(=O)Nc1ccc(CCO)cc1,T/C,"endpoint: mean tumor weight, dose: 10.0 mg/kg/injection, schedule: Q01DX001 (ip), vehicle: carboxymethylcellulose (CMC), higher = larger tumour",43 % of control
same,T/C,"endpoint: mean tumor weight, dose: 20.0 mg/kg/injection, schedule: Q01DX001 (ip), vehicle: carboxymethylcellulose (CMC), higher = larger tumour",22 % of control
Cc1cc(CCl)c(C)c(Br)c1C,T/C,"endpoint: median survival time, dose: 1.5 mg/kg/injection, schedule: Q01DX009 (ip), vehicle: Klucel (hydroxypropylcellulose) (HPC), higher = longer survival",108 % of control
same,T/C,"endpoint: median survival time, dose: 3.0 mg/kg/injection, schedule: Q01DX009 (ip), vehicle: Klucel (hydroxypropylcellulose) (HPC), higher = longer survival",120 % of control
same,T/C,"endpoint: median survival time, dose: 6.0 mg/kg/injection, schedule: Q01DX009 (ip), vehicle: Klucel (hydroxypropylcellulose) (HPC), higher = longer survival",95 % of control
C=C1C(=O)OC2C1CCC(C)C1CCC(=O)OC12C (stereo not drawn),T/C,"endpoint: median survival time, dose: 1.6 mg/kg/injection, schedule: Q01DX009 (ip), vehicle: Klucel (hydroxypropylcellulose) (HPC), higher = longer survival",95 % of control
same,T/C,[5],102 % of control
same,T/C,"endpoint: median survival time, dose: 3.13 mg/kg/injection, schedule: Q01DX009 (ip), vehicle: Klucel (hydroxypropylcellulose) (HPC), higher = longer survival",104 % of control
same,T/C,"endpoint: median survival time, dose: 6.25 mg/kg/injection, schedule: Q01DX009 (ip), vehicle: Klucel (hydroxypropylcellulose) (HPC), higher = longer survival",102 % of control
same,T/C,[6],106 % of control
same,T/C,[7],92 % of control
OCN(CO)c1nc(N(CO)CO)nc(N(CO)CO)n1,T/C,"endpoint: median survival time, dose: 6.25 mg/kg/injection, schedule: Q01DX009 (ip), vehicle: saline with Tween-80, higher = longer survival",109 % of control
same,T/C,"endpoint: median survival time, dose: 12.5 mg/kg/injection, schedule: Q01DX009 (ip), vehicle: saline with Tween-80, higher = longer survival",107 % of control
same,T/C,"endpoint: median survival time, dose: 25.0 mg/kg/injection, schedule: Q01DX009 (ip), vehicle: saline with Tween-80, higher = longer survival",102 % of control
C[C@]12CC[C@H]3[C@@H](CC[C@]4(O)C[C@@H](O)CC[C@]34C=O)[C@@]1(O)CC[C@@H]2C1=CC(=O)OC1,T/C,[5],87 % of control
same,T/C,[6],113 % of control
same,T/C,[7],116 % of control
CCOC(=O)CC(NC(=O)CP(=O)(OCC)OCC)C(=O)OCC (stereo not drawn),T/C,"endpoint: median survival time, dose: 50.0 mg/kg/injection, schedule: Q01DX004 (ip), vehicle: saline, higher = longer survival",113 % of control
same,T/C,"endpoint: median survival time, dose: 100.0 mg/kg/injection, schedule: Q01DX004 (ip), vehicle: saline, higher = longer survival",116 % of control
same,T/C,"endpoint: median survival time, dose: 200.0 mg/kg/injection, schedule: Q01DX004 (ip), vehicle: saline, higher = longer survival",124 % of control
same,T/C,"endpoint: median survival time, dose: 400.0 mg/kg/injection, schedule: Q01DX004 (ip), vehicle: saline, higher = longer survival",116 % of control
same,T/C,"endpoint: median survival time, dose: 800.0 mg/kg/injection, schedule: Q01DX004 (ip), vehicle: saline, higher = longer survival",116 % of control
same,T/C,"endpoint: median survival time, dose: 1600.0 mg/kg/injection, schedule: Q01DX004 (ip), vehicle: saline, higher = longer survival",120 % of control
CC(C)([NH-])CO.CC(C)([NH-])CO.[Cl][Cd][Cl],T/C,"endpoint: mean tumor weight, dose: 1.0 mg/kg/injection, schedule: Q01DX011 (ip), vehicle: other, higher = larger tumour",122 % of control
same,T/C,"endpoint: mean tumor weight, dose: 2.0 mg/kg/injection, schedule: Q01DX011 (ip), vehicle: other, higher = larger tumour",77 % of control
same,T/C,"endpoint: mean tumor weight, dose: 4.0 mg/kg/injection, schedule: Q01DX011 (ip), vehicle: other, higher = larger tumour",75 % of control
same,T/C,"endpoint: mean tumor weight, dose: 8.0 mg/kg/injection, schedule: Q01DX011 (ip), vehicle: other, higher = larger tumour",97 % of control
